Measurements published in the supplement of paper PMC5908809.

How the values were obtained:
[1] = test system: normal NK cells expanded with K562-aAPC; experiment: percent inhibition of viability; higher = more inhibition; settings: 72 h, IL-2 2.5 ng/mL
Procedure: (§1)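 Drug sensitivity and resistance testing on K562-aAPC-expanded normal NK cells: 5 concentrations (10-fold steps over a 10,000-fold range), 72 h at 37 °C, viability by CellTiter-Glo normalised to DMSO and benzethonium chloride controls; DSS from the fitted curve.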

DERL-7 (IL-2 2.5 ng/mL) [2] = experiment: as above; settings: 72 h
IMC-1 (IL-2 20 ng/mL) [3] = experiment: as above; settings: 72 h
KAI3 (IL-2 2.5 ng/mL) [4] = experiment: as above; settings: 72 h
KHYG-1 (IL-2 2.5 ng/mL) [5] = experiment: as above; settings: 72 h
NK-92 (IL-2 2.5 ng/mL) [6] = experiment: as above; settings: 72 h
NK-YS (IL-2 2.5 ng/mL) [7] = experiment: as above; settings: 72 h
NKL (IL-2 2.5 ng/mL) [8] = experiment: as above; settings: 72 h
SNK-6 (IL-2 2.5 ng/mL) [9] = experiment: as above; settings: 72 h
YT (IL-2 2.5 ng/mL) [10] = experiment: as above; settings: 72 h
[11] = test system: normal primary NK cells, pool 1 (3 donors) (IL-2 2.5 ng/mL); experiment: as above; settings: 72 h
[12] = test system: normal primary NK cells, pool 1 (3 donors), resting (IL-2 0 ng/mL); experiment: as above; settings: 72 h
[13] = test system: normal primary NK cells, pool 2 (3 donors) (IL-2 2.5 ng/mL); experiment: as above; settings: 72 h
[14] = test system: normal primary NK cells, pool 3 (3 donors) (IL-2 2.5 ng/mL); experiment: as above; settings: 72 h
[15] = test system: normal NK cells expanded with K562-aAPC; experiment: drug sensitivity score (DSS) (DSS units); higher = more sensitive; extreme values may be limits of the assay; settings: 72 h; IL-2 2.5 ng/mL
Procedure: as §1

DERL-7 (IL-2 2.5 ng/mL) [16] = experiment: as above; settings: 72 h
IMC-1 (IL-2 20 ng/mL) [17] = experiment: as above; settings: 72 h
KAI3 (IL-2 2.5 ng/mL) [18] = experiment: as above; settings: 72 h
KHYG-1 (IL-2 2.5 ng/mL) [19] = experiment: as above; settings: 72 h
NK-92 (IL-2 2.5 ng/mL) [20] = experiment: as above; settings: 72 h
NK-YS (IL-2 2.5 ng/mL) [21] = experiment: as above; settings: 72 h
NKL (IL-2 2.5 ng/mL) [22] = experiment: as above; settings: 72 h
SNK-6 (IL-2 2.5 ng/mL) [23] = experiment: as above; settings: 72 h
YT (IL-2 2.5 ng/mL) [24] = experiment: as above; settings: 72 h
[25] = test system: normal primary NK cells, pool 1 (3 donors) (IL-2 2.5 ng/mL); experiment: as above; settings: 72 h
[26] = test system: normal primary NK cells, pool 1 (3 donors), resting (IL-2 0 ng/mL); experiment: as above; settings: 72 h
[27] = test system: normal primary NK cells, pool 2 (3 donors) (IL-2 2.5 ng/mL); experiment: as above; settings: 72 h
[28] = test system: normal primary NK cells, pool 3 (3 donors) (IL-2 2.5 ng/mL); experiment: as above; settings: 72 h

C[C@@H]1C=C2C(=O)O[C@@H]3CC[C@H](C1)[C@]23O [Galiellalactone] (max concentration tested 25000 nM)
percent inhibition of viability [%]
Settings	2.5 nM	25 nM	250 nM	2500 nM	25000 nM
DERL-7 (IL-2 2.5 ng/mL) [2]	-3.32	-2.23	6.78	39.3	101
IMC-1 (IL-2 20 ng/mL) [3]	-4.12	-5.59	-4.92	-11.8	42.7
KAI3 (IL-2 2.5 ng/mL) [4]	0.86	-9.38	4.52	34.1	99.1
KHYG-1 (IL-2 2.5 ng/mL) [5]	-7.95	-9.83	-6.41	10.7	80.1
NK-92 (IL-2 2.5 ng/mL) [6]	-18	-14.4	-12.5	13.8	106
NK-YS (IL-2 2.5 ng/mL) [7]	0.84	-3.46	3.95	18.4	64.7
NKL (IL-2 2.5 ng/mL) [8]	-8.21	-5.52	-6.69	-5.94	49.3
SNK-6 (IL-2 2.5 ng/mL) [9]	-13.8	-22	-28.1	20.7	86
YT (IL-2 2.5 ng/mL) [10]	-7.44	-15.7	-6.7	-3.78	81
[1]	-7.73	-4.65	-5.56	8.69	91.9
[11]	-8.48	6.95	7.01	15.2	93.7
[12]	-12.7	5.72	9.42	27.4	89.3
[13]	-9.13	7.06	4.86	10.7	93.2
[14]	-11.4	1.14	-3.83	2.67	87.7

Settings	drug sensitivity score
DERL-7 (IL-2 2.5 ng/mL) [16]	10.3
IMC-1 (IL-2 20 ng/mL) [17]	1.6
KAI3 (IL-2 2.5 ng/mL) [18]	9.99
KHYG-1 (IL-2 2.5 ng/mL) [19]	6.22
NK-92 (IL-2 2.5 ng/mL) [20]	7.95
NK-YS (IL-2 2.5 ng/mL) [21]	6.25
NKL (IL-2 2.5 ng/mL) [22]	2.18
SNK-6 (IL-2 2.5 ng/mL) [23]	7.97
YT (IL-2 2.5 ng/mL) [24]	4.18
[15]	6.5
[25]	7.72
[26]	8.44
[27]	6.94
[28]	5.23

NC(=O)c1ccc(I)c([N+](=O)[O-])c1 [Iniparib] (max concentration tested 10000 nM)
percent inhibition of viability [%]
Settings	1 nM	10 nM	100 nM	1000 nM	10000 nM
DERL-7 (IL-2 2.5 ng/mL) [2]	-3.85	-2.44	3.9	-0.89	28.1
IMC-1 (IL-2 20 ng/mL) [3]	2.82	5.28	4.37	4.53	-3.7
KAI3 (IL-2 2.5 ng/mL) [4]	11.4	8.8	12.9	11.2	19
KHYG-1 (IL-2 2.5 ng/mL) [5]	-2.79	-0.73	-1.94	0.34	2.04
NK-92 (IL-2 2.5 ng/mL) [6]	8.25	4.1	12.8	3.36	7.28
NK-YS (IL-2 2.5 ng/mL) [7]	-0.99	0.64	-4.34	-1.33	-4.16
NKL (IL-2 2.5 ng/mL) [8]	-0.1	1.47	0.26	-4.81	-5.47
SNK-6 (IL-2 2.5 ng/mL) [9]	2.09	3.24	11.9	10.5	23.6
YT (IL-2 2.5 ng/mL) [10]	7.63	6.75	4.79	6.7	5.3
[1]	7.03	0.05	0.33	1.63	13.4
[11]	8.54	2.74	4.22	12.3	53.8
[12]	-2.43	-4.44	-6.4	24.9	78.9
[13]	-8.36	-7.08	1.43	-0.1	30.1
[14]	-1.14	-4.93	1.99	-1.49	19.3

Settings	drug sensitivity score
DERL-7 (IL-2 2.5 ng/mL) [16]	1.1
IMC-1 (IL-2 20 ng/mL) [17]	0
KAI3 (IL-2 2.5 ng/mL) [18]	0
KHYG-1 (IL-2 2.5 ng/mL) [19]	0
NK-92 (IL-2 2.5 ng/mL) [20]	0
NK-YS (IL-2 2.5 ng/mL) [21]	0
NKL (IL-2 2.5 ng/mL) [22]	0
SNK-6 (IL-2 2.5 ng/mL) [23]	2.01
YT (IL-2 2.5 ng/mL) [24]	0
[15]	0.24
[25]	4.84
[26]	7.97
[27]	1.31
[28]	0.46
